Laboratory results: paper PMC5374206, “Anti-bacterial and Anti-biofilm Evaluation of Thiazolopyrimidinone Derivatives Targeting the Histidine Kinase YycG Protein of Staphylococcus epidermidis” (Frontiers in Microbiology, 2017)
≈ marks a conversion by molar mass, not a printed value. Read-outs that look alike come from different tables or passages of the source.

How the values were obtained:
ArlS' protein = molecular target: T1, ArlS' protein (Staphylococcus epidermidis, UniProt Q5HPC4); test: Inhibition of ArlS' autophosphorylation (Kinase-Glo Luminescent Kinase Assay); type: biochemical, S. epidermidis; settings: for Inhibition of ArlS’ phosphorylation / Luminescence: 200 μM derivative, 2 μg purified protein, 4 μM ATP; for inhibitory effect on the autophosphorylation of ArlS': highest concentration 200 μM, result in words
T1 construct: made in house

S. aureus ATCC 49230 = test: MIC tube-dilution assay; type: cell-based; settings: Staphylococcus aureus, ATCC49230
Procedure: (§1) The MIC assays of the derivatives of compound 5 against S. epidermidis, S. aureus, MRSA and E. coli were performed by using the methods described previously by Wiegand et al. ([2008]). In brief, two-fold serial dilutions of the derivatives were prepared in tubes containing 4 mL MHB medium, yielding final concentrations from 200 to 0.78 μM. Bacterial cultures were grown overnight and adjusted so that the bacterial suspension turbidity was equivalent to a 0.5 McFarland standard (~1 × 10^8 CFU/mL) and further diluted to 1:200 into MHB medium. The contents in the tubes were mixed thoroughly and incubated at 37°C with shaking at 220 rpm for 16–20 h. The MIC endpoint was defined as the lowest concentration at which there was no visible growth in the tubes. The MBC values were assessed by plating 100 μL samples from each negative (no visible bacterial growth) culture tube from the MIC assays onto blank MHB agar plates. After incubation at 37°C for 24 h, the bacterial colonies on the plates were counted. The MBC was the concentration at which a 99.9% reduction of the original inoculum was observed (Pridmore et al., [2011]). In this assay, all the experiments were performed three times.

[1] = system: S. epidermidis ATCC 12228; test: MIC tube-dilution assay; type: cell-based; settings: Staphylococcus epidermidis, ATCC12228
Procedure: as §1

[2] = system: methicillin-resistant S. aureus (MRSA) clinical isolates; test: MIC and MBC against clinical MRSA isolates; type: cell-based; settings: Staphylococcus aureus
Procedure: S. epidermidis ATCC 12228 (biofilm negative), S. epidermidis ATCC 35984 (biofilm positive), S. aureus ATCC 49230 and Escherichia coli ATCC 25922 were used in this study. Six clinical methicillin-resistant S. aureus (MRSA) isolates were collected from the Department of Clinical Laboratory, Shanghai General Hospital, School of Medicine, Shanghai Jiaotong University, China. Staphylococcal strains were grown in tryptic soy broth (TSB; Oxoid Ltd., Basingstoke, England), and E. coli strains were grown in Luria-Bertani broth medium. Mueller-Hinton broth (MHB; Oxoid Ltd., Basingstoke, England) was used for antimicrobial susceptibility testing. Vancomycin and ampicillin were obtained from the Sigma Chemical Co. (St Louis, MO, USA).
as §1

[3] = system: S. epidermidis ATCC 35984; test: Time-kill assay against fast-growing S. epidermidis; type: cell-based, Staphylococcus epidermidis; settings: 4 × MIC; within/after 1 h; inoculum ~1 × 10^7 CFU/mL; MHB
Procedure: Suspensions of S. epidermidis (1 × 10^7 CFU/mL) were prepared and separately treated with the derivatives of compound 5 or vancomycin at concentrations of 4 × MIC in fresh MHB. Time-kill experiments were performed at 37°C with shaking at 220 rpm under aerobic conditions. Aliquots (1 mL) were removed from the culture medium at different time points (0, 1, 3, 5, 8, and 24 h), serially diluted and 100 μL of each of the dilutions plated out onto tryptic soy agar. After incubating at 37°C for 24 h, emergent bacterial colonies were counted, and the activity of the derivatives against fast-growing S. epidermidis cells was determined by plotting log10 colony counts (CFU/mL) against time. Bactericidal activity was defined as a 3-log10 decrease in CFU/mL. This assay was performed in triplicate and similar results were obtained.

Cytotoxicity MTT assay = type: cell-based; settings: African green monkey, Vero cells, highest concentration tested 200 μM
Procedure: A Cell Proliferation Kit I (MTT; Roche, Indianapolis, USA) was used to detect the cytotoxicity of the derivatives against Vero cells. Vero cells were added to 96-well microtiter plates at a concentration of 5 × 10^4 cells/well in 100 μL of culture medium. After 24 h, culture medium was replaced by 100 μL serial dilutions of the derivatives (0.78–100 μM) and the cells were incubated for 4 h in an atmosphere of 5% CO2, then 10 μL of the MTT stock solution was added to each well and the plate returned to the 37°C incubator for 4 h. Subsequent to the incubation, the purple formazan salts were dissolved in DMSO, and the absorbance of each well was measured at wavelengths of 595 nm (test) and 655 nm (reference). Cells treated with the solvent (0.1% DMSO) were used as a blank control. The concentration of the derivatives that produced a 50% cytotoxicity effect on Vero cells (CC50) was calculated using Origin v8.0 software (Origin Lab, Northampton, USA).

[4] = Erythrocyte hemolysis assay; type: cell-based; settings: human, erythrocytes (5% suspension), 37°C; for hemolysis at 1 h, 200 µM: at 200 μM; for hemolysis at 1 h: at MIC (against S epidermidis ATCC 35984)
Procedure: Hemolytic activities of the derivatives were measured on healthy human erythrocytes. A pure suspension of erythrocytes was obtained by washing a blood sample with sterile 0.9% NaCl saline solution. Erythrocytes were resuspended in normal saline to give a 5% solution, then treated with MIC, 4 × MIC or 200 μM of the derivatives for 1 h at 37°C in 96-well microtiter plates. After the incubation and centrifugation at 1,000 g for 10 min, supernatants were transferred to another sterile plate and the absorbance at 570 nm was measured on a spectrophotometric microplate reader. A positive control (100% hemolysis) and a negative control (0% hemolysis) were achieved by incubating with 1% Triton-X 100 and 0.1% DMSO, respectively. Each assay was performed in triplicate and repeated three times.

[5] = Aqueous solubility observation; type: physicochemical; settings: 200 μM; precipitated after incubation at 37°C for 12 h; result in words
[6] = MRSA strain 66, ST239, read-out: MIC
[7] = MRSA strain 69, ST217, read-out: MIC
[8] = MRSA strain 141, ST5, read-out: MIC
[9] = MRSA strain 226, ST59, read-out: MIC
[10] = MRSA strain 258, ST239, read-out: MIC
[11] = MRSA strain 260, ST764, read-out: MIC
[12] = range over six isolates, read-out: MICs against six MRSA clinical isolates

T1 sequence (Q5HPC4 240-456): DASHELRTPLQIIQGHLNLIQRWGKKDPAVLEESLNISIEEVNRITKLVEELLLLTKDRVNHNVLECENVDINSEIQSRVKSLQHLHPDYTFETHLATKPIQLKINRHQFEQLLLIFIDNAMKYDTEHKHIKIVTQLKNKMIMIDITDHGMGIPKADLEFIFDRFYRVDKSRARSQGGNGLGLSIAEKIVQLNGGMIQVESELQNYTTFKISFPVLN

SMILES | Inhibition of ArlS’ phosphorylation (ArlS' protein) | inhibitory effect on the autophosphorylation of ArlS' (ArlS' protein) | MIC (S. aureus ATCC 49230) | MIC [1] | MBC ([2]; MRSA strain 66, ST239) | MIC [2, 6] | MBC ([2]; MRSA strain 69, ST217) | MIC [2, 7] | MBC ([2]; MRSA strain 141, ST5) | MIC [2, 8] | MBC ([2]; MRSA strain 226, ST59) | MIC [2, 9] | MBC ([2]; MRSA strain 258, ST239) | MIC [2, 10] | MBC ([2]; MRSA strain 260, ST764) | MIC [2, 11] | MIC [2, 12] | reduction in CFU/mL [3] | CC50 at 4 h (Cytotoxicity MTT assay) | hemolysis at 1 h, 200 µM [4] | also measured
CCOC(=O)C1=C(c2ccccc2)N=c2sc(=Cc3ccc(-c4ccc(C(=O)O)cc4)o3)c(=O)n2C1c1ccc(F)cc1 (centres unmarked) [H5-35, 2-[5-(4-carboxy-phenyl)-furan-2-ylmethylene]-5-(4-fluoro-phenyl)-3-oxo-7-phenyl-2,3-dihydro-5H-thiazolo[3,2-a]pyrimidine-6-carboxylic acid ethyl ester] | -1.5% | None of them showed an inhibitory effect | 6.25 µM (≈ 3.72 µg/mL) | 3.13 µM (≈ 1.86 µg/mL) | 200 µM (≈ 119 µg/mL) | 3.13 µM (≈ 1.86 µg/mL) | 50 µM (≈ 29.7 µg/mL) | 6.25 µM (≈ 3.72 µg/mL) | 200 µM (≈ 119 µg/mL) | 6.25 µM (≈ 3.72 µg/mL) | 100 µM (≈ 59.5 µg/mL) | 6.25 µM (≈ 3.72 µg/mL) | 200 µM (≈ 119 µg/mL) | 6.25 µM (≈ 3.72 µg/mL) | 200 µM (≈ 119 µg/mL) | 6.25 µM (≈ 3.72 µg/mL) | 3.13 to 6.25 µM (≈ 1.86 to 3.72 µg/mL) | 3 log | > 200 µM | 0.27 ± 0.1% | Luminescence (ArlS' protein): 18075 + 285 RLU; hemolysis at 1 h [4]: 0.17 ± 0.05%; aqueous solubility [5]: limited aqueous solubility
CCOC(=O)C1=C(c2ccccc2)N=c2sc(=Cc3ccc(-c4ccc(C(=O)O)cc4)o3)c(=O)n2C1c1ccc(Cl)cc1 (centres unmarked) [H5-34, 2-[5-(4-carboxy-phenyl)-furan-2-ylmethylene]-5-(4-chloro-phenyl)-3-oxo-7-phenyl-2,3-dihydro-5H-thiazolo[3,2-a]pyrimidine-6-carboxylic acid ethyl ester] | -5.6% | None of them showed an inhibitory effect | 3.13 µM (≈ 1.91 µg/mL) | 3.13 µM (≈ 1.91 µg/mL) | 200 µM (≈ 122 µg/mL) | 3.13 µM (≈ 1.91 µg/mL) | 50 µM (≈ 30.6 µg/mL) | 6.25 µM (≈ 3.82 µg/mL) | 200 µM (≈ 122 µg/mL) | 6.25 µM (≈ 3.82 µg/mL) | 100 µM (≈ 61.1 µg/mL) | 6.25 µM (≈ 3.82 µg/mL) | 200 µM (≈ 122 µg/mL) | 6.25 µM (≈ 3.82 µg/mL) | 200 µM (≈ 122 µg/mL) | 6.25 µM (≈ 3.82 µg/mL) | 3.13 to 6.25 µM (≈ 1.91 to 3.82 µg/mL) | 3 log | > 200 µM | 0.19 ± 0.01% | Luminescence (ArlS' protein): 17747 + 622 RLU; hemolysis at 1 h [4]: 0.22 ± 0.57%; aqueous solubility [5]: limited aqueous solubility
O=C(O)c1cccc(-c2ccc(C=c3sc4n(c3=O)C(c3ccc(F)cc3)C=C(c3ccccc3)N=4)o2)c1 (centres unmarked) [H5-33, 3-{5-[5-(4-fluoro-phenyl)-3-oxo-7-phenyl-5H-thiazolo [3,2-a]pyrimidin-2-ylidenemethyl]-furan-2-yl}-benzoic acid] | -5.1% | None of them showed an inhibitory effect | 3.13 µM (≈ 1.64 µg/mL) | 3.13 µM (≈ 1.64 µg/mL) | 200 µM (≈ 105 µg/mL) | 6.25 µM (≈ 3.27 µg/mL) | 50 µM (≈ 26.1 µg/mL) | 6.25 µM (≈ 3.27 µg/mL) | 200 µM (≈ 105 µg/mL) | 6.25 µM (≈ 3.27 µg/mL) | 200 µM (≈ 105 µg/mL) | 6.25 µM (≈ 3.27 µg/mL) | 200 µM (≈ 105 µg/mL) | 6.25 µM (≈ 3.27 µg/mL) | 200 µM (≈ 105 µg/mL) | 6.25 µM (≈ 3.27 µg/mL) | 3.13 to 6.25 µM (≈ 1.64 to 3.27 µg/mL) | 3 log | > 200 µM | 0.32 ± 0.05% | Luminescence (ArlS' protein): 17786 + 382 RLU; hemolysis at 1 h [4]: 0.15 ± 0.06%
CCOC(=O)C1=C(c2ccccc2)N=c2sc(=Cc3ccc(-c4cccc(C(=O)O)c4)o3)c(=O)n2C1c1ccc(F)cc1 (centres unmarked) [H5-32, 2-[5-(3-carboxy-phenyl)-furan-2-ylmethylene]-5-(4-fluoro-phenyl)-3-oxo-7-phenyl-2,3-dihydro-5H-thiazolo[3,2-a]pyrimidine-6-carboxylic acid ethyl ester] | -5.9% | None of them showed an inhibitory effect | 3.13 µM (≈ 1.86 µg/mL) | 6.25 µM (≈ 3.72 µg/mL) | 100 µM (≈ 59.5 µg/mL) | 3.13 µM (≈ 1.86 µg/mL) | 50 µM (≈ 29.7 µg/mL) | 3.13 µM (≈ 1.86 µg/mL) | 100 µM (≈ 59.5 µg/mL) | 6.25 µM (≈ 3.72 µg/mL) | 50 µM (≈ 29.7 µg/mL) | 6.25 µM (≈ 3.72 µg/mL) | 200 µM (≈ 119 µg/mL) | 3.13 µM (≈ 1.86 µg/mL) | 100 µM (≈ 59.5 µg/mL) | 6.25 µM (≈ 3.72 µg/mL) | 3.13 to 6.25 µM (≈ 1.86 to 3.72 µg/mL) | 3 log | > 200 µM | 0.24 ± 0.05% | hemolysis at 1 h [4]: 0.15 ± 0.05%
